From patent US20120083522A1, “MODULATION OF INFLAMMATORY RESPONSES BY FACTOR XI” (Isis Pharmaceuitcals, inc., priority 2009, published 2012) come the findings set out here.

In the oligonucleotide strings, read from the 5' end, every base follows the letter of its sugar. An asterisk marks phosphorothioate; unmarked linkages are phosphodiester. Other units and linkages are bracketed, terminal groups are in braces. A string of capitals states the bases alone. e = 2'-O-(2-methoxyethyl) (MOE); [5mC] = 5-methylcytosine; d = 2'-deoxy (DNA)

What all share (type): cell-based
Data set [1] deals with human Factor XI mRNA. The data set is described as follows: Antisense inhibition in HepG2 cells by microwalk gapmers, 75 nM, lipofectin (Example 3). As to conditions: HepG2 cells, 75 nM, oligonucleotides targeted to nucleobases 1275 to 1318 of SEQ ID NO: 1. The method, boiled down: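 HepG2 cells (10,000 per well) were transfected with 75 nM gapmer using lipofectin and treated for about 24 h. Factor XI mRNA was quantified by real-time PCR, normalized to RiboGreen total RNA and expressed as percent inhibition versus untreated controls.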

For data set [2], the system named is human Factor XI mRNA. The data set is described as follows: Dose-dependent inhibition and IC50 in HepG2 cells, electroporation (Example 15). The protocol: Cells were plated at a density of 20,000 cells per well and transfected using electroporation with 123.46 nM, 370.37 nM, 1,111.11 nM, 3,333.33 nM and 10,000 nM concentrations of antisense oligonucleotide, as specified in Table 52. After a treatment period of approximately 16 hours, RNA was isolated from the cells and Factor XI mRNA levels were measured by quantitative real-time PCR. Human Factor XI primer probe set RTS 2966 was used to measure mRNA levels. Factor XI mRNA levels were adjusted according to total RNA content, as measured by RIBOGREEN. Results are presented as percent inhibition of Factor XI, relative to untreated control cells.

Data set [3] relates to human Factor XI mRNA. The data set is described as follows: Antisense inhibition in HepG2 cells by microwalk gapmers, 8,000 nM, electroporation (Example 14). The note with it: HepG2 cells, 8,000 nM. The protocol: These microwalk gapmers were tested in vitro. Cultured HepG2 cells at a density of 20,000 cells per well were transfected using electroporation with 8,000 nM antisense oligonucleotide. After a treatment period of approximately 24 hours, RNA was isolated from the cells and Factor XI mRNA levels were measured by quantitative real-time PCR. Factor XI mRNA levels were adjusted according to total RNA content, as measured by RIBOGREEN. Results are presented as percent inhibition of Factor XI, relative to untreated control cells.
The chimeric antisense oligonucleotides in Table 51 were designed as 5-10-5 MOE, 5-8-5 and 6-8-6 MOE gapmers. The first two listed gapmers in Table 51 are the original gapmers (ISIS 416850 and ISIS 416858) from which ISIS 445493-445543 were designed via microwalk, and are designated by an asterisk. The 5-10-5 gapmers are 20 nucleotides in length, wherein the central gap segment is comprised of ten 2′-deoxynucleotides and is flanked on both sides (in the 5′ and 3′ directions) by wings comprising five nucleotides each. The 5-8-5 gapmers are 18 nucleotides in length, wherein the central gap segment is comprised of eight 2′-deoxynucleotides and is flanked on both sides (in the 5′ and 3′ directions) by wings comprising five nucleotides each. The 6-8-6 gapmers are 20 nucleotides in length, wherein the central gap segment is comprised of eight 2′-deoxynucleotides and is flanked on both sides (in the 5′ and 3′ directions) by wings comprising six nucleotides each. For each of the motifs (5-10-5, 5-8-5 and 6-8-6), each nucleotide in the 5′ wing segment and each nucleotide in the 3′ wing segment has a 2′-MOE modification. The internucleoside linkages throughout each gapmer are phosphorothioate (P═S) linkages. All cytidine residues throughout each gapmer are 5-methylcytidines. “Human Target start site” indicates the 5′-most nucleotide to which the gapmer is targeted in the human sequence. “Human Target stop site” indicates the 3′-most nucleotide to which the gapmer is targeted in the human sequence. Each gapmer listed in Table 51 is targeted to SEQ ID NO: 1 (GENBANK Accession No. NM_000128.3). Each gapmer is Table 51 is also fully cross-reactive with the rhesus monkey Factor XI gene sequence, designated herein as SEQ ID NO: 274 (exons 1-15 GENBANK Accession No. NW—001118167.1). ‘Rhesus monkey start site’ indicates the 5′-most nucleotide to which the gapmer is targeted in the rhesus monkey sequence. ‘Rhesus monkey stop site’ indicates the 3′-most nucleotide to which the gapmer is targeted to the rhesus monkey sequence.

In the case of “416849 (antisense eG*e[5mC]*eA*e[5mC]*eA*dG*dT*dT*dT*d[5mC]*dT*dG*dG*d[5mC]*dA*eG*eG*e[5mC]*e[5mC]*eT) [compound 416849]”, the “% inhibition of human Factor XI mRNA levels” value (from here on “% inhibition”) in the data set on human Factor XI mRNA [1] came to 88%. For the same substance, the “percent inhibition of Factor XI mRNA” value is recorded as 5% with human Factor XI mRNA [2] (electroporation, 123.47 nM); 5% in the data set on human Factor XI mRNA [2] (electroporation, 370.37 nM); 26% in the data set with human Factor XI mRNA [2] (electroporation, 1,111.11 nM); 57% in the data set with human Factor XI mRNA [2] (electroporation, 3,333.33 nM); 68% with human Factor XI mRNA [2] (electroporation, 10,000.0 nM). Also, the “Percent inhibition of human Factor XI mRNA levels” value with human Factor XI mRNA [3] is listed as 88%.
Turning to “416853 (antisense eT*eT*eG*eG*eT*dG*d[5mC]*dA*d[5mC]*dA*dG*dT*dT*dT*d[5mC]*eT*eG*eG*e[5mC]*eA) [compound 416853]”, in the data set with human Factor XI mRNA [1], the “% inhibition” value is 91%. Also, in the data set on human Factor XI mRNA [3], the “Percent inhibition of human Factor XI mRNA levels” value amounted to 84%.
The like results for “416854 (antisense eA*eT*eT*eG*eG*dT*dG*d[5mC]*dA*d[5mC]*dA*dG*dT*dT*dT*e[5mC]*eT*eG*eG*e[5mC]) [compound 416854]” were, in that order, 90% and 86%.
As for “416855 (antisense e[5mC]*eA*eT*eT*eG*dG*dT*dG*d[5mC]*dA*d[5mC]*dA*dG*dT*dT*eT*e[5mC]*eT*eG*eG) [compound 416855]”, the “% inhibition” value in the data set on human Factor XI mRNA [1] was determined as 87%. Besides, in the data set with human Factor XI mRNA [3], the “Percent inhibition of human Factor XI mRNA levels” value was 85%.
Regarding “416862 (antisense eA*eG*e[5mC]*eG*eG*dA*d[5mC]*dG*dG*d[5mC]*dA*dT*dT*dG*dG*eT*eG*e[5mC]*eA*e[5mC]) [compound 416862]”, in the data set with human Factor XI mRNA [1], the “% inhibition” value is given as 90%. In addition, the “Percent inhibition of human Factor XI mRNA levels” value in the data set with human Factor XI mRNA [3] turned out to be 89%.
For “416865 (antisense eT*eG*eG*e[5mC]*eA*dG*d[5mC]*dG*dG*dA*d[5mC]*dG*dG*d[5mC]*dA*eT*eT*eG*eG*eT) [compound 416865]”, in that order: 88% and 86%.
With “445498 (antisense GGTGCACAGTTTCTGGCAGG; 6-8-6 gapmer chemistry, chemistry not fully specified) [compound 445498]”, the “percent inhibition of Factor XI mRNA” value turned out to be 3% with human Factor XI mRNA [2] (electroporation, 123.47 nM); 1% in the data set with human Factor XI mRNA [2] (electroporation, 370.37 nM); 27% in the data set on human Factor XI mRNA [2] (electroporation, 1,111.11 nM); 50% with human Factor XI mRNA [2] (electroporation, 3,333.33 nM); 58% with human Factor XI mRNA [2] (electroporation, 10,000.0 nM). Also, in the data set on human Factor XI mRNA [3], the “Percent inhibition of human Factor XI mRNA levels” value is given as 83%.
For the substance “445503 (antisense GCATTGGTGCACAGTTTCTG; 6-8-6 gapmer chemical modifications, chemistry not fully specified) [compound 445503]”, in the data set on human Factor XI mRNA [2] (electroporation), the IC50 (usually the concentration that gives 50% inhibition) was determined as 5.9 µM. Also, the “percent inhibition of Factor XI mRNA” value with human Factor XI mRNA [2] (electroporation, 123.47 nM) was 0%; with human Factor XI mRNA [2] (electroporation, 370.37 nM), 0%; with human Factor XI mRNA [2] (electroporation, 1,111.11 nM), 22%; in the data set with human Factor XI mRNA [2] (electroporation, 3,333.33 nM), 36%; in the data set with human Factor XI mRNA [2] (electroporation, 10,000.0 nM), 60%. Also, in the data set on human Factor XI mRNA [3], the “Percent inhibition of human Factor XI mRNA levels” value was 89%.
On to “445504 (antisense eG*eG*e[5mC]*eA*eT*eT*dG*dG*dT*dG*d[5mC]*dA*d[5mC]*dA*eG*eT*eT*eT*e[5mC]*eT) [compound 445504]”, for which the “percent inhibition of Factor XI mRNA” value came out at 8% in the data set with human Factor XI mRNA [2] (electroporation, 123.47 nM); 20% with human Factor XI mRNA [2] (electroporation, 370.37 nM); 38% in the data set on human Factor XI mRNA [2] (electroporation, 1,111.11 nM); 53% in the data set on human Factor XI mRNA [2] (electroporation, 3,333.33 nM); 68% in the data set on human Factor XI mRNA [2] (electroporation, 10,000.0 nM). In the data set on human Factor XI mRNA [3], the “Percent inhibition of human Factor XI mRNA levels” value worked out at 87%.
Take “445505 (antisense e[5mC]*eG*eG*e[5mC]*eA*eT*dT*dG*dG*dT*dG*d[5mC]*dA*d[5mC]*eA*eG*eT*eT*eT*e[5mC]) [compound 445505]”: the “percent inhibition of Factor XI mRNA” value in the data set on human Factor XI mRNA [2] (electroporation, 123.47 nM) turned out to be 12%; in the data set on human Factor XI mRNA [2] (electroporation, 370.37 nM), 30%; in the data set with human Factor XI mRNA [2] (electroporation, 1,111.11 nM), 39%; in the data set with human Factor XI mRNA [2] (electroporation, 3,333.33 nM), 59%; in the data set with human Factor XI mRNA [2] (electroporation, 10,000.0 nM) it was 77%. Moreover, in the data set on human Factor XI mRNA [3], the “Percent inhibition of human Factor XI mRNA levels” value worked out at 89%.
As for “445530 (antisense eG*e[5mC]*eA*eT*eT*dG*dG*dT*dG*d[5mC]*dA*d[5mC]*dA*eG*eT*eT*eT*e[5mC]) [compound 445530]”, in the data set on human Factor XI mRNA [3], the “Percent inhibition of human Factor XI mRNA levels” value came out at 83%.
Consider “445532 (antisense e[5mC]*eG*eG*e[5mC]*eA*dT*dT*dG*dG*dT*dG*d[5mC]*dA*e[5mC]*eA*eG*eT*eT) [compound 445532]”, for which the “percent inhibition of Factor XI mRNA” value with human Factor XI mRNA [2] (electroporation, 123.47 nM) was determined as 5%; in the data set on human Factor XI mRNA [2] (electroporation, 370.37 nM), 12%; in the data set with human Factor XI mRNA [2] (electroporation, 1,111.11 nM), 39%; with human Factor XI mRNA [2] (electroporation, 3,333.33 nM), 60%; with human Factor XI mRNA [2] (electroporation, 10,000.0 nM) it was 70%. Also, the “Percent inhibition of human Factor XI mRNA levels” value in the data set on human Factor XI mRNA [3] is given as 89%.
As to “445533 (antisense eA*e[5mC]*eG*eG*e[5mC]*dA*dT*dT*dG*dG*dT*dG*d[5mC]*eA*e[5mC]*eA*eG*eT) [compound 445533]”, in the data set on human Factor XI mRNA [3], the “Percent inhibition of human Factor XI mRNA levels” value came out at 87%.
With “445534 (antisense eG*eA*e[5mC]*eG*eG*d[5mC]*dA*dT*dT*dG*dG*dT*dG*e[5mC]*eA*e[5mC]*eA*eG) [compound 445534]”, the “Percent inhibition of human Factor XI mRNA levels” value in the data set on human Factor XI mRNA [3] is reported as 82%.
With “445535 (antisense eG*eG*eA*e[5mC]*eG*dG*d[5mC]*dA*dT*dT*dG*dG*dT*eG*e[5mC]*eA*e[5mC]*eA) [compound 445535]”, in the data set with human Factor XI mRNA [3], the “Percent inhibition of human Factor XI mRNA levels” value is recorded as 83%.
Same read-out and setting: the value for “445536 (antisense e[5mC]*eG*eG*eA*e[5mC]*dG*dG*d[5mC]*dA*dT*dT*dG*dG*eT*eG*e[5mC]*eA*e[5mC]) [compound 445536]” was 82%; that for “445537 (antisense eG*e[5mC]*eG*eG*eA*d[5mC]*dG*dG*d[5mC]*dA*dT*dT*dG*eG*eT*eG*e[5mC]*eA) [compound 445537]” was 78%; that for “445538 (antisense eA*eG*e[5mC]*eG*eG*dA*d[5mC]*dG*dG*d[5mC]*dA*dT*dT*eG*eG*eT*eG*e[5mC]) [compound 445538]” was 80%.
Same read-out and setting: the value for “445539 (antisense e[5mC]*eA*eG*e[5mC]*eG*dG*dA*d[5mC]*dG*dG*d[5mC]*dA*dT*eT*eG*eG*eT*eG) [compound 445539]” was 79%.
Same read-out and setting: the value for “445540 (antisense eG*e[5mC]*eA*eG*e[5mC]*dG*dG*dA*d[5mC]*dG*dG*d[5mC]*dA*eT*eT*eG*eG*eT) [compound 445540]” was 74%; that for “445541 (antisense eG*eG*e[5mC]*eA*eG*d[5mC]*dG*dG*dA*d[5mC]*dG*dG*d[5mC]*eA*eT*eT*eG*eG) [compound 445541]” was 80%; that for “445542 (antisense eT*eG*eG*e[5mC]*eA*dG*d[5mC]*dG*dG*dA*d[5mC]*dG*dG*e[5mC]*eA*eT*eT*eG) [compound 445542]” was 83%.
Turning to “445543 (antisense e[5mC]*eT*eG*eG*e[5mC]*dA*dG*d[5mC]*dG*dG*dA*d[5mC]*dG*eG*e[5mC]*eA*eT*eT) [compound 445543]”, the “Percent inhibition of human Factor XI mRNA levels” value in the data set on human Factor XI mRNA [3] was 74%.
